{"source": "patent US12083141B2", "about": "“Treatment of hyperglycemia with solute carrier family 39 member 5 (SLC39A5) inhibitors” (Regeneron Pharmaceuticals, Inc., priority 2019, dated 2024)", "key": {"[1]": {"test_system": "tyrosine phosphatase", "test": "Ex vivo tyrosine phosphatase activity in SLC39A5 loss-of-function mice, diet zinc supplementation", "details": "high fat diets supplemented with different zinc concentrations, ex vivo assay"}, "[2]": {"test_system": "serine/threonine phosphatase", "test": "Ex vivo serine/threonine phosphatase activity in SLC39A5 loss-of-function mice, diet zinc supplementation", "details": "high fat diets supplemented with different zinc concentrations, ex vivo assay"}, "[3]": {"test_system": "human hepatoma HepG2 cells", "test": "Zinc activation of LKB1/AMPK and AKT signaling in HepG2 cells", "type": "cell-based", "details": "acute, dose dependent"}, "[4]": {"test_system": "mice fed high fat diet", "test": "Zinc supplementation of high fat diet in mice (DIO)", "type": "in vivo", "details": "for hepatic zinc levels: zinc-supplemented diet", "experimental": "Four groups of 6-week old male mice (16 per group) were fed either normal chow or high fat diets supplemented with different zinc concentrations for either 4 or 6 weeks (FIG. 2A). The levels of zinc were analyzed after 4 weeks (FIGS. 2B and 2C) and after 6 weeks (FIGS. 2D and 2E)."}, "[5]": {"test_system": "serine/threonine phosphatase", "test": "Dependence of serine/threonine phosphatase activity on zinc concentration", "type": "biochemical", "details": "increased concentrations of zinc"}, "[6]": {"test_system": "human primary hepatocytes", "test": "Zinc activation of LKB1/AMPK and AKT signaling in primary hepatocytes", "type": "cell-based", "details": "acute, dose dependent", "experimental": "Liver protein was extracted using RIPA buffer (Cell signaling technology, Cat #9806) with Halt Protease & Phosphatase Inhibitor Cocktail (ThermoFisher Scientific, Cat #78440). Five microgram protein of each sample were separated in NuPAGE 4-12% Bis-Tris protein gel (Invitrogen, Cat #WG1403BOX), and transferred to nitrocellulose membrane using Trans-Blot® Turbo™ Transfer System (BioRad). Blotting was performed using the following Cell Signaling Technology antibodies: Phospho-AMPKα (Thr172) (Cell signaling technology, Cat #2535), AMPKα (Cell signaling technology, Cat #5831), β-Actin (Sigma, Cat #5441), Phospho-AKT (Ser473) (Cell signaling technology, Cat #4060), AKT (Cell signaling technology, Cat #9272), Phospho-LKB1 (Ser428) (Cell signaling technology, Cat #3482), LKB1 (Cell signaling technology, Cat #3050), rabbit IgG conjugated to horseradish peroxidase (HRP) (Cell signaling technology, Cat #7074) and mouse IgG conjugated to HRP (Cell signaling technology, Cat #7076). Blots were developed using SuperSignal West Femto Substrate (ThermoFisher Scientific, Cat #34095). Signals were captured using ImageQuant LAS4000 (GE Healthcare)."}, "[7]": {"test_system": "tyrosine phosphatase", "test": "Dependence of tyrosine phosphatase activity on zinc concentration", "type": "biochemical", "details": "increased concentrations of zinc"}}, "data": [{"smiles": "[Zn]", "note": "[zinc]", "values": [{"measurement": "rescue of tyrosine phosphatase inhibition caused by loss of SLC39A5", "setting": "[1]", "value": "did not rescue the inhibition"}, {"measurement": "rescue of serine/threonine phosphatase inhibition caused by loss of SLC39A5", "setting": "[2]", "value": "did not rescue the inhibition"}, {"measurement": "LKB1/AMPK and AKT signaling pathways", "setting": "[3]", "value": "acutely activates LKB1/AMPK and AKT signaling pathways in dose dependent manner"}, {"measurement": "fat accumulation in liver (microscopic analysis)", "setting": "[4]; high fat diet supplemented with zinc", "value": "reverses fat accumulation in liver"}, {"measurement": "intravenous glucose tolerance test, blood glucose", "setting": "[4]; high fat diet with increasing diet zinc concentration, 4 or 6 weeks", "value": "mitigated blood glucose increase mediated by high fat diet"}, {"measurement": "intravenous glucose tolerance test, area under the curve", "setting": "[4]; high fat diet with increasing diet zinc concentration, effect not statistically significant", "value": "reduced area under the curve"}, {"measurement": "serum zinc levels", "setting": "[4]; male mice, diets supplemented with different zinc concentrations, 4 and 6 weeks", "value": "no significant change"}, {"measurement": "hepatic zinc levels", "setting": "[4]; male mice, after 4 weeks", "value": "no significant change"}, {"measurement": "hepatic zinc levels", "setting": "[4]; male mice, after 6 weeks, correlated with level of zinc in diet", "value": "statistically significant increase"}, {"measurement": "serine/threonine phosphatase activity", "setting": "[5]", "value": "suppressed the activity"}, {"measurement": "LKB1/AMPK and AKT signaling pathways", "setting": "[6]", "value": "acutely activates LKB1/AMPK and AKT signaling pathways in dose dependent manner"}, {"measurement": "tyrosine phosphatase activity", "setting": "[7]", "value": "suppressed the activity"}]}]}
